Reference: patent publication US6835382B2, “Ii peptide therapeutics to enhance antigen presentation” (University of Massachusetts, priority 1996, dated 2004)
Non-standard residues stand in square brackets, D forms with d. Cit = NC(=O)NCCC[C@H](N)C(=O)O

Test system: murine E^k MHC class II allele
Test: simultaneous assay, E^k allele (CH27 APC, TPc9.1 T hybridoma, THMCC82-103 or PGCC81-104)
Format: cell-based
Method in brief: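 Read-out is [3H]TdR incorporation into HT-2 indicator cells exposed to supernatant from a 24 h primary culture. That culture combined mitomycin C-treated APC (5×10^6 cells/mL, 0.025 mg/mL mitomycin C, 20 min, 37° C), peptide, effector compound and T hybridoma, all added at once.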

[1] = Table 6, AE peptide 64 μM, supernatant 1:4, reduced by a factor of 5
[2] = Table 16, AE peptide 4 μM, supernatant 1:8
[3] = Table 1, AE peptide 16 μM (second value), 0.075 μM THMCC82-103, supernatant 1:2
[4] = Table 1, AE peptide 64 μM (first value), 0.075 μM THMCC82-103, supernatant 1:2
[5] = Table 5, AE peptide 64 μM, supernatant 1:4, normalized to E^d by a factor of 10
[6] = Table 7, AE peptide 64 μM, supernatant 1:4, normalized by a factor of 5
[7] = Table 11, AE peptide 64 μM, supernatant 1:4
[8] = Table 13, AE peptide 1 μM (fourth value), supernatant 1:4
[9] = Table 13, AE peptide 4 μM (third value), supernatant 1:4
[10] = Table 13, AE peptide 16 μM (second value), supernatant 1:4
[11] = Table 13, AE peptide 64 μM (first value), supernatant 1:4
[12] = Table 14, AE peptide 64 μM, supernatant 1:4
[13] = Table 15, AE peptide 16 μM, supernatant 1:4
[14] = Table 2, AE peptide 64 μM, 0.05 μM PGCC81-104, supernatant 1:2
[15] = Table 4, AE109 homolog 64 μM, supernatant 1:2

For “Ac-LRM M LPK-NH2 (Ac-LRMMLPK-NH2) [AE220]”, the “Times Baseline Response, E^k” value [1] was 12.5 and the “Times Baseline Response, E^k” value [2] was 1.1.
In the case of Ac-LRMKLPK-NH2 [AE114], the “Times Baseline Response, E^k” value [3] is reported as 3.9, the “Times Baseline Response, E^k” value [4] is reported as 15.9 and the “Times Baseline Response, Ek” value (Table 3, AE peptide 64 μM, supernatant 1:4, values reduced relative to E^d by a factor of 10) is reported as 26.9. For the same substance, the “Times Baseline Response, E^k” value [5] was 26.9, the “Times Baseline Response, E^k” value [1] was 10.7 and the “Times Baseline Response, E^k” value [6] was 10.7. The “Times Baseline Response, E^k” value (Table 9, AE peptide 64 μM, supernatant 1:4, normalized by a factor of 5) was 13.2, the “Times Baseline Response, E^k” value [7] was 5.2 and the “Times Baseline Response, E^k” value (Table 12, AE peptide 1 μM (fourth value), supernatant 1:4) was 2.1. For the same substance, the “Times Baseline Response, E^k” value (Table 12, AE peptide 4 μM (third value), supernatant 1:4) was 4.9, the “Times Baseline Response, E^k” value (Table 12, AE peptide 16 μM (second value), supernatant 1:4) was 19.3 and the “Times Baseline Response, E^k” value (Table 12, AE peptide 64 μM (first value), supernatant 1:4) was 51.5. The “Times Baseline Response, E^k” value [8] was 2.1, the “Times Baseline Response, E^k” value [9] was 4.9 and the “Times Baseline Response, E^k” value [10] was 19.3. For the same substance, the “Times Baseline Response, E^k” value [11] was 51.5, the “Times Baseline Response, E^k” value [12] was 40.3 and the “Times Baseline Response, E^k” value [13] was 18.2. The “Times Baseline Response, E^k” value [2] was 1.2, the “Times Baseline Response, E^k” value (Table 17, AE peptide 64 μM, supernatant 1:4) was 2.8 and the “Times Baseline Response, E^k” value (Table 18, AE peptide 64 μM, supernatant 1:4) was 40.3.
For Ac-YRM-NH2 [AE118], the “Times Baseline Response, E^k” value [3] was 3.0 and the “Times Baseline Response, E^k” value [4] was 5.6.
With Ac-YRMKL-NH2 [AE116] the “Times Baseline Response, E^k” value [3] was 3.2 and the “Times Baseline Response, E^k” value [4] was 15.5.
Ac-LQLDSLRMKLPKSAK-NH2 [AE151] was tested, and the “Times Baseline Response, E^k” value [14] was 0.6 and the “activity in simultaneous assay on E^k, in words” value (Tables 2 and 18) was “inhibition”.
For Ac-L r MKLPK-NH2 [AE161], the “Times Baseline Response, E^k” value [7] was 1.1.
Ac-ARNKLPK-NH2 [AE344] was tested, and the “Times Baseline Response, E^k” value [13] was 2.5.
Ac- (mL) RMKLPK-NH2 [AE174] was tested, and the “Times Baseline Response, E^k” value [8] was 1.6, the “Times Baseline Response, E^k” value [9] was 3.1 and the “Times Baseline Response, E^k” value [10] was 9.8. For the same substance, the “Times Baseline Response, E^k” value [11] was 35.1 and the “Times Baseline Response, E^k” value [12] was 34.3.
In the case of “Ac-LR N KLPK-NH2 (Ac-LRNKLPK-NH2) [AE202]”, the “Times Baseline Response, E^k” value [5] is reported as 9.3 and the “Times Baseline Response, E^k” value [13] is reported as 5.8.
In the case of Ac-Y K MKLPKSAK-NH2 [AE134], the “Times Baseline Response, E^k” value [15] is reported as 0.9 and the “Times Baseline Response, E^k” value [2] is reported as 1.3.
In the case of Ac-LRMKLPKSAK-NH2 [AE110], the “Times Baseline Response, E^k” value [3] is reported as 2.1, the “Times Baseline Response, E^k” value [4] is reported as 7.6 and the “Times Baseline Response, E^k” value [14] is reported as 19.1.
In the case of Ac-LRLKYPK-NH2 [AE301], the “Times Baseline Response, E^k” value [12] is reported as 59.9, the “Times Baseline Response, E^k” value [13] is reported as 46.6 and the “Times Baseline Response, E^k” value [2] is reported as 15.5.
In the case of “Ac-LRMK M PK-NH2 (Ac-LRMKMPK-NH2) [AE236]”, the “Times Baseline Response, E^k” value [6] is reported as 16.9.
Ac-LRMKL p K-NH2 [AE165] was tested, and the “Times Baseline Response, E^k” value [7] was 3.6.
Ac-LR (mL) KyPk-NH2 [AE306] was tested, and the “Times Baseline Response, E^k” value [12] was 13.7.
In the case of Ac-Y[Cit]MKLPKSAK-NH2 [AE131], the “Times Baseline Response, E^k” value [15] is reported as 0.8 and the “Times Baseline Response, E^k” value [13] is reported as 4.1.
With Ac-ARNKNPF-NH2 [AE347] the “Times Baseline Response, E^k” value [13] was 2.8.
